Reference: US20100204156A1, “USE OF THYMOPENTIN AS A THERAPEUTIC AGENT” (priority 2007, published 2010)
Residues, ends and D or L forms follow the SMILES beside them.

Columns and labels:
CEM-SS cells = test: Cell viability / cytotoxicity (MTS) in the HIV-1 assay; conditions: peptide 10 micrograms per ml, MTS
[1] = system: macrophages differentiated from Human PBMC; test: TNF alpha production assay (LPS-stimulated macrophages, ELISA); format: cell-based; conditions: test peptide 10 micrograms per ml, lipopolysaccharide 200 ng/ml, overnight
Protocol: Human Peripheral Blood Mononuclear Cells (PBMC) were obtained from normal human donors. The macrophages were prepared by adherence of PBMC to the plastic wells of the plates. […] Not stimulated macrophages served as negative background control. After overnight incubation, supernatants from the control and LPS-stimulated cultures were harvested and assayed for TNF alpha production employing a TNF alpha specific ELISA.

[2] = Cell viability / cytotoxicity (MTS) in the HIV-1 assay; conditions: human, CEM-SS cells
MRSA = test: Methicillin Resistant Staphylococcus Aureus (MRSA) assay; format: cell-based; conditions: MRSA growth; peptide 10 micrograms per ml; read visually
Human A549 cells [3] = test: Apoptosis prevention assay (Annexin-5, C2 ceramide); format: cell-based; conditions: A549 cells pretreated 30 min, test peptide 10 micrograms per ml
Description: Human A549 cells (carcinomic human alveolar basal epithelial cells) were utilized in the experiments employing the Annexin-5 apoptosis assay. Annexin-5 is a member of a highly conserved protein family that binds acidic phospholipids in a calcium-dependent manner. […] Phosphatidylserine is translocated from the inner side of the plasma membrane to the outer layer when cells undergo death by apoptosis or cell necrosis and serves as a signal by which cell destined for death are recognized by phagocytes. A549 cells were pretreated for 30 min with test peptide—10 micrograms per ml—followed by the exposure to C2 ceramide. Ceramide mediates cell apoptosis through the activation of the mitogen activating protein kinase (MAPK) and the stress activated kinase (JNK/SAPK). C2 ceramide is a synthetic, membrane soluble analog of ceramide.

[4] = system: hepatitis B virus (HBV) ayw strain; test: HBV assay: secreted HBV DNA by real-time TaqMan PCR in HepG2-2.2.15 cells; format: cell-based; conditions: test peptide 10 micrograms per ml; six days; HBV DNA in supernatant
Description: HepG2-2.2.15 is a stable cell line containing the hepatitis B virus (HBV) ayw strain genome (ATCC Cat. No. CRL-11997). Antiviral compounds blocking any late step of viral replication such as transcription, translation, pregenome encapsidation, reverse transcription, particle assembly and release can be identified and characterized using this cell line. In this assay, an active compound will reduce the production of secreted HBV from cells, measured by utilizing real time quantitative PCR (TaqMan) assay to directly and accurately measure HBV DNA copies.
HepG2-2.2.15 cells were plated in 96-well microtiter plates. After 16-24 hours the confluent monolayer of HepG2-2.2.15 cells was washed and the medium was replaced with complete medium containing test peptide—10 micrograms per ml—in duplicate. […] Six days following the initial administration of the peptide, the cell culture supernatants was collected, treated with pronase and DNAse and then used in a real-time quantitative TaqMan PCR assay. The PCR-amplified HBV DNA was detected in real-time by monitoring increases in fluorescence signals that result from the exonucleolytic degradation of a quenched fluorescence probe molecule that hybridizes to the amplified HBV DNA. […] Antiviral activity was calculated from the reduction in HBV DNA levels (% virus control). […]

HUVEC = test: Endothelial tube formation assay; format: cell-based, Human; conditions: 20 hours, test peptide 10 micrograms per ml
Description: Positive control was vehicle only.

[5] = system: Human Peripheral Blood Mononuclear Cells (PBMC); test: T cell proliferation assay (PHA, 3H-thymidine); format: cell-based; conditions: test peptide 10 micrograms per ml
Protocol: (§1) Human Peripheral Blood Mononuclear Cells (PBMC) were obtained from normal human donors. The T cell proliferation was induced by stimulation of the cells with the T cell mitogen phytohemagglutinin (PHA), either in the absence (positive proliferation control), or in the presence of test peptide—10 micrograms per ml—to examine their effects on the T cell proliferating response. 10^5/well PBMC were plated in 96-well microtiter plates and assayed in duplicate with the peptide. Cell cultures were incubated at 37° C. for 3 days in a 5% CO2 incubator and were thereafter pulsed with 1 microCi/well ^3H-thymidine for additional 12 hours of culture. At the end of incubation time, the plates were harvested and the cells counted by liquid scintillation for the incorporation of ^3H-thymidine as a measure of T cell proliferation.

Pseudomonas aeruginosa = Pseudomonas aeruginosa assay; format: cell-based; conditions: Pseudomonas aeruginosa growth; peptide 10 micrograms per ml; read visually
Streptococcus pneumoniae = Streptococcus pneumoniae assay; format: cell-based; conditions: Streptococcus pneumoniae growth; peptide 10 micrograms per ml; read visually
Human A549 cells [6] = test: Propidium iodide cell cycle assay; format: cell-based; conditions: 24 hours, test peptide 10 micrograms per ml, FACS
Description: Human A549 cells (carcinomic human alveolar basal epithelial cells) were utilized in the experiments employing the Propidium iodide cell cycle assay. The eukaryotic cell cycle is a series of events that take place in a cell leading to its replication. The regulation of the cell cycle involves steps crucial to the cell, including detecting and repairing genetic damage, and provision of various checks to prevent uncontrolled cell division. The molecular events that control the cell cycle are ordered and directional; that is, each process occurs in a sequential fashion. The cell cycle consists of four distinct phases: G1 phase, S phase, G2 phase (collectively known as interphase) and M phase. M phase is itself composed of two tightly coupled processes: mitosis, in which the cell's chromosomes are divided between the two daughter cells, and cytokinesis, in which the cell's cytoplasm divides forming distinct cells. Activation of each phase is dependent on the proper progression and completion of the previous one. Cells that have temporarily or reversibly stopped dividing are said to have entered a state of quiescence called Go phase. The relatively brief M phase consists of nuclear division and cytoplasmic division. The first phase within interphase, from the end of the previous M phase till the beginning of DNA synthesis is called G1 (G indicating gap or growth). During this phase the biosynthetic activities of the cell resume at a high rate. This phase is marked by synthesis of various enzymes that are required in S phase, mainly those needed for DNA replication. The ensuing S phase starts when DNA synthesis commences; when it is complete, all of the chromosomes have been replicated. The cell then enters the G2 phase, which lasts until the cell enters mitosis. Significant protein synthesis occurs during this phase, mainly involving the production of microtubules, which are required during the process of mitosis. […]
Propidium iodide is an intercalating agent and a fluorescent molecule that can be used to stain DNA. […] After incubation for 40 min at 37° C., cells were analyzed in the FACS.

[7] = system: spleen cells of Ovalbumin-immunized Balb/c mice; test: Th1/Th2 cytokine profiling assay (Mouse Th1/Th2 Cytokine CBA Kit); format: cell-based; conditions: test peptide 10 micrograms per ml; Ovalbumin restimulation, 72 hours
Description: The Balb/c mice (originated in 1923, it is a popular strain and is used in many different research disciplines. Also classified as an inbred from the production of 20 or more successive brother-sister matings, the Balb/c mouse is albino and small in size) were immunized on Days 1, 15, and 29 with Ovalbumin (Ovalbumin is the main protein found in egg white, commonly used to stimulate an immunological reaction in test animals) in PBS (5 micrograms/injection). On day 50, spleens of the mice were harvested (3 weeks after last boost with Ovalbumin). […] Thereafter, additional Ovalbumin was added to the cells at 10 micrograms/ml for in vitro restimulation of the cells. 72 hours later, cell supernatants were harvested and assayed using the Becton Dickinson Mouse Th1/Th2 Cytokine CBA Kit. This kit can be used to measure Interleukin-2 (IL-2), Interleukin-4 (IL-4), Interleukin-5 (IL-5), Interferon-γ (IFN-γ), and Tumor Necrosis Factor-α (TNF-α) protein levels in a single sample. The kit performance has been optimized for analysis of physiologically relevant concentrations ([…] levels) of specific cytokine proteins in tissue culture supernatants and serum samples.

HIV-1IIIB = test: HIV-1 antiviral assay (CPE reduction, MTS) in CEM-SS cells; format: cell-based; conditions: peptide 10 micrograms per ml, 6 days post-infection
HCMV strain AD169 = test: HCMV plaque reduction assay in MRC-5 cells; format: cell-based; conditions: HCMV AD169 in MRC-5 cells; peptide 10 micrograms per ml; 7-10 days
Description: (§2) Ganciclovir was used as positive control.

[8] = system: Primary Human endothelial cells (HUVEC); test: Endothelial cell migration assay; format: cell-based; conditions: 22 hours, test peptide 10 micrograms per ml
[9] = Cytotoxicity testing (CellTiter 96) in MRC-5 cells; format: cell-based; conditions: human, MRC-5 cells (human embryonal lung fibroblasts), 6 days incubation, read-out: % Cell viability
Description: as §2

[10] = system: Human Peripheral Blood Mononuclear Cells (PBMC); test: B cell proliferation assay (SAC plus Interleukin-2, 3H-thymidine); format: cell-based; conditions: test peptide 10 micrograms per ml
Protocol: as §1, with “The B” for “The T”, “the B” for “the T”, “mitogen Staphylococcus aureus Cowans I (SAC) plus Interleukin-2,” for “mitogen phytohemagglutinin (PHA),”, “cell” for “cell proliferating”, “of B” for “of T”

Human A549 cells [11] = test: Apoptosis induction assay (Annexin-5); format: cell-based; conditions: 24 hours, test peptide 10 micrograms per ml
Description: Human A549 cells (carcinomic human alveolar basal epithelial cells) were utilized in the experiments employing the Annexin-5 apoptosis assay. Annexin-5 is a member of a highly conserved protein family that binds acidic phospholipids in a calcium-dependent manner. […] Phosphatidylserine is translocated from the inner side of the plasma membrane to the outer layer when cells undergo death by apoptosis or cell necrosis and serves as a signal by which cell destined for death are recognized by phagocytes. Test peptide—10 micrograms per ml—were exposed for 24 hours to the A549 cells before they were analyzed for signs of apoptosis.

[12] = Cell viability (dye uptake) in the HBV assay; format: cell-based; conditions: human, HepG2-2.2.15 cells, test peptide 10 micrograms per ml

## Cc1cn([C@H]2C[C@H](N=[N+]=[N-])[C@@H](CO)O2)c(=O)[nH]c1=O [AZT, reference compound]
CEM-SS cells
  % Cell viability: 97%

## CC(C)[C@H](NC(=O)[C@H](CC(=O)O)NC(=O)[C@H](CCCCN)NC(=O)[C@@H](N)CCCN=C(N)N)C(=O)N[C@@H](Cc1ccc(O)cc1)C(=O)O [Thymopentin, Arg-Lys-Asp-Val-Tyr-OH] (H-RKDVY-OH)
[1]
  % of LPS induction: 108.9%
[2]
  viability at 10 micrograms per ml: 100%
MRSA
  % inhibition: 0.0%
Human A549 cells [3]
  % prevention of ceramide induced apoptosis: 0.0%
[4]
  % inhibition of HBV replication in HEP G2 cells: 6.2%
HUVEC
  % inhibition of tube formation: 31%
[5]
  % of PHA induced control: 89.1%
Pseudomonas aeruginosa
  % inhibition: 0.0%
Streptococcus pneumoniae
  % inhibition: 0.0%
Human A549 cells [6]
  Cell cycle analysis G0/G1: 54.6
  Cell cycle analysis G2/M: 10.7
  Cell cycle analysis S: 34.8
[7]
  IFNγ spleen cells; TH1 response (% of control): 62.0 % of control
  IL-2 spleen cells (% of control): 122.2 % of control
  IL-4 spleen cells; TH2 response (% of control): 170.6 % of control
  IL-5 spleen cells; TH2 response (% of control): 73.8 % of control
  TNF-a spleen cells; TH1 response (% of control): 109.6 % of control
HIV-1IIIB
  % CPE reduction in HIV-1 infected CEM-SS cells: 0.0%
HCMV strain AD169
  % plaque reduction: 1.4%
[8]
  % inhibition of migration: 7%
[9]
  viability at 144 h: 100%
[10]
  % of SAC/IL2 induced control: 94.4%
Human A549 cells [11]
  % of induction: 0.6%
[12]
  viability at 144 h, 10 micrograms per ml: 100%
